From EP1013768A1, “Mutant epoxide hydrolases” (priority 1998, dated 2000)

Experiments:
Format in all cases: biochemical
[1] = tested on: epoxide hydrolase from Agrobacterium radiobacter AD1, Tyr215Phe mutant; test: Stereoselective hydrolysis (kinetic resolution) of styrene oxides with Tyr215Phe mutant; details: substrate 5 mM, Tris buffer 50 mM pH9, 30°C, 10% DMSO for meta- and para-chlorostyrene oxide, chiral GLC
Description: Site directed mutagenesis was done as described by Kunkel (Proc. Natl. Acad. Sci. U.S.A., 82, 488-492 (1985)) with uracil-containing single stranded plasmid pEH20 as template (Rink et al.). Tyr^215 was mutated to Phe with the primer 5'-[…]-3' (mutated codon underlined). In order to confirm the mutation, the whole gene was sequenced as described in Rink et al.
(§1) A screw-cap bottle containing 30 ml Tris buffer^1 (50 mM pH9) was incubated in a shaking waterbath at 30°C. Styrene oxides (SO) as indicated in table 3 were added to a final concentration of 5 mM. The reaction was started by the addition of the a purified enzyme solution of the Tyr215Phe mutant of the epoxide hydrolase from Agrobacterium radiobacter AD1. The kinetic resolution was monitored by periodically taking 1 ml samples (with a 1 ml syringe) from the closed screw-cap bottle. The samples were extracted with diethylether containing 20 mM mesitylene as an internal standard. Prior to analysis by chiral GLC the water was removed from the sample by passing it through a short column containing MgSO4. The enantiomeric excess (%ee) and the yield of the epoxides was determined with a Hewlett-Packard 5890 gas chromatograph equipped with a FID-detector, using a Chiraldex G-TA capillary column, of 50 m lenght and 0.25 mm inside diameter. The data from the chiral GLC are as follows: • styrene oxide, tr(S)=12.4 min and tr(R)=14.8 min at 110°C; • meta-chlorostyrene oxide, tr(S)=20.2 min and tr(R)= 31.1 min at 120°C; • para-chlorostyrene oxide, tr(S)=40.7 min and tr(R)= 43.0 min at 100°C. ^1 In case of meta-chlorostyrene oxide and para-chlorostyrene oxide the buffer also contained 10% DMSO

[2] = tested on: epoxide hydrolase from Agrobacterium radiobacter AD1, wild type, SEQ ID No. 1; test: Stereoselective hydrolysis (kinetic resolution) of styrene oxides, comparative experiment with wild type enzyme; details: substrate 5 mM, Tris buffer 50 mM pH9, 30°C, 10% DMSO for meta- and para-chlorostyrene oxide, chiral GLC
Description: as §1
Example III was repeated using the corresponding wild type epoxide hydrolase for Agrobacterium radiobacter AD1.

[3] = tested on: epoxide hydrolase from Agrobacterium radiobacter AD1, Tyr152Phe mutant; test: Stereoselective hydrolysis (kinetic resolution) of racemic styrene oxide with Tyr152Phe mutant; details: as Example III (5 mM, Tris buffer 50 mM pH9, 30°C)

| SMILES | E-value [1] | E-value [2] | E-value [3] |
| --- | --- | --- | --- |
| O=[N+]([O-])c1ccc(C2CO2)cc1 (racemic) [P-NO2-SO] | > 200 | 100 |  |
| c1ccc(C2CO2)cc1 (racemic) [SO, styrene oxide] | 30 | 16 | ≥ 40 |
| Clc1cccc(C2CO2)c1 (stereo not drawn) [M-Cl-SO, meta-chlorostyrene oxide] | 13 | 6.5 |  |
| Clc1ccc(C2CO2)cc1 (stereo not drawn) [P-Cl-SO, para-chlorostyrene oxide] | 130 | 32 |  |
